The text below walks through data of US6197811A, “Cytokine production inhibitors” (Terragen Discovery Inc., priority 1998, dated 2001).

This assay relates to IL-1β production in human peripheral blood mononuclear cells (PBMC). In words: LPS-induced IL-1β release from human peripheral blood mononuclear cells (PBMC), ELISA. Type of assay: cell-based. The following applies: 1 ng/ml LPS, 18 hours at 37° C., IL-1β by ELISA. As to the method: IL-1 Release from Human Peripheral Blood Mononuclear Cells (PBMC)
Human peripheral blood mononuclear cells (PBMC) were separated from Buffy coats obtained from normal healthy donors on Lymphoprep. […] Cells were incubated for 18 hours at 37° C. with 5% CO2 and the cell culture supernatants harvested and stored at -70° C. Effects on the production of IL-1β were determined by using an ELISA.

As a reminder, the IC50 is the midpoint of a concentration-inhibition curve. High values mean lower potency, low ones higher potency. Turning to `C/C=C/[C@@H]1OC(=O)C=C[C@H]1OC(=O)c1ccccc1` [Example 1, ((2S,3R)-3,6-Dihydro-6-oxo-(2E-prop-1-enyl-2H-pyran-3-yl)) benzoate], 2400 nM corresponded to half-maximal inhibition (IC50).
In the case of `C/C=C/[C@@H]1OC(=O)C=C[C@H]1OC(=O)c1ccc(-c2ccccc2)cc1` [Example 1a, ((2S,3R)-3,6-Dihydro-6-oxo-(2E-prop-1-enyl-2H-pyran-3-yl))-4-biphenyl carboxylate] it was > 7500 nM; in that of `C/C=C/[C@@H]1OC(=O)C=C[C@H]1OC(=O)c1ccc2c(c1)C(=O)c1ccccc1-2` [Example 1b, ((2S,3R)-3,6-Dihydro-6-oxo-(2E-prop-1-enyl-2H-pyran-3-yl))-9-oxo-9H-fluorene carboxylate], 4500 nM; in that of `C/C=C/[C@@H]1OC(=O)C=C[C@H]1OC(=O)c1cccc2c1C(=O)c1ccccc1-2` [Example 1c], 4000 nM.
The result for `C/C=C/[C@H]1OC(=O)C=C[C@@H]1NCc1ccccc1` [Example 2a, (5S,6R)-5-benzylamino-6E-prop-1-ene-5,6-dihydro-2H-pyran-2-one] reads 12000 nM.
On to `C/C=C/[C@H]1OC(=O)C=C[C@@H]1NCc1ccc(-c2ccccc2)cc1` [Example 2b, (5S,6R)-5-(4-biphenylmethylamino)-6E-prop-1-ene-5,6-dihydro-2H-pyran-2-one], for which the IC50 is 6900 nM.
In the case of `C/C=C/[C@H]1OC(=O)C=C[C@@H]1NCC1c2ccccc2-c2ccccc21` [Example 2c, (5S,6R)-5-(2-9H-fluorenemethylamino)-6E-prop-1-ene-5,6-dihydro-2H-pyran-2-one] it was 3600 nM; in that of `C/C=C/[C@@H]1OC(=O)C=C[C@H]1NC(=O)c1ccccc1` [Example 3, ((2S,3R)-3,6-Dihydro-6-oxo-(2E-prop-1-enyl-2H-pyran-3-yl)) phenylamide], 9700 nM; in that of `C/C=C/[C@@H]1OC(=O)C=C[C@H]1NC(=O)c1ccc(-c2ccccc2)cc1` [Example 3a, ((2S,3R) -3,6-Dihydro-6-oxo-(2E-prop-1-enyl-2H-pyran-3-yl) )4-biphenylamide], 1000 nM.
In the case of `C/C=C/[C@@H]1OC(=O)C=C[C@H]1NC(=O)c1cccc2c1-c1ccccc1C2=O` [Example 3b, ((2S,3R)-3,6-Dihydro-6-oxo-(2E-prop-1-enyl-2H-pyran-3-yl))-9-oxo-9H-fluorene-4-amide] it was 10000 nM.
In the case of `C/C=C/[C@@H]1OC(=O)C=C[C@H]1NC(=O)c1ccc(-c2ccccc2)cc1` [Example 3c, ((2S,3R)-3,6-Dihydro-6-oxo-(2E-prop-1-enyl-2H-pyran-3-yl))-4-biphenylamide] it was 1300 nM; in that of `C/C=C/[C@@H]1OC(=O)C=C[C@H]1NC(=O)c1cccc2c1-c1ccccc1C2=O` [Example 3d, ((2S,3R)-3,6-Dihydro-6-oxo-(2E-prop-1-enyl-2H-pyran-3-yl))-9-oxo-9H-fluorene-4-amide], 11300 nM.
`C/C=C/[C@@H]1OC(=O)C=C[C@H]1OC(=O)/C=C/C(C)=C/[C@@H](C)CCCCCC` [Example 4, ((2S,3R)-3,6-Dihydro-6-oxo-(2E-prop-1-enyl-2H-pyran-3-yl))-(2E,4E)-4,6-dimethyldodecanoate]: the concentration for half-maximal inhibition (IC50) was found to be 4000 nM.
The result for `C/C=C/[C@@H]1OC(=O)C=C[C@@H]1OCOCCOC` [Example 4a, (2S,3S)-5-(2-Methoxy-ethoxymethoxy)-6-(2E-prop-1-enyl)-5,6-dihydro-2H-pyran-2-one] reads 8500 nM.
In the case of `C/C=C/[C@@H]1OC(=O)C=C[C@@H]1OCc1ccc(-c2ccccc2)cc1` [Example 4b, (2S,3S)-5-(4-Biphenylmethoxy)-6-(2E-prop-1-enyl)-5,6-dihydro-2H-pyran-2-one] it was 400 nM.
As for `C/C=C/[C@@H]1OC(=O)C=C[C@@H]1OCc1ccccc1` [Example 4c, (2S,3S)-5-Benzyloxy-6-(2E-prop-1-enyl)-5,6-dihydro-2H-pyran-2-one], the 50% inhibitory concentration (IC50) is 1200 nM.
In the case of `C/C=C/[C@@H]1OC(=O)C=C[C@@H]1OC(=O)/C=C/CCCCCCCCC` [Example 5, ((2S,3S)-3,6-Dihydro-6-oxo-(2E-prop-1-enyl-2H-pyran-3-yl))dodeca-2E-enoate] it was 2800 nM; in that of `C/C=C/[C@@H]1OC(=O)C=C[C@@H]1OC(=O)/C=C/c1ccco1` [Example 5a, ((2S,3S)-3,6-dihydro-6-oxo-(2E-prop-1-enyl-2H-yran-3-yl))-3-(2-furfuryl)acrylate], 1200 nM; in that of `C/C=C/[C@@H]1OC(=O)C=C[C@@H]1OC(=O)c1ccc(-c2ccccc2)cc1` [Example 5b, ((2S,3S)-3,6-Dihydro-6-oxo-(2E-prop-1-enyl-2H-pyran-3-yl))-4-biphenylcarboxylate], 300 nM.
The result for `C/C=C/[C@@H]1OC(=O)C=C[C@@H]1OC(=O)c1ccc(-c2ccc(CC)cc2)cc1` [Example 5c, ((2S,3S)-3,6-Dihydro-6-oxo-(2E-prop-1-enyl-2H-pyran-3-yl))-4'-ethyl-4-biphenylcarboxylate] reads 100 nM; that for `C/C=C/[C@@H]1OC(=O)C=C[C@@H]1OC(=O)c1cccc2c1Cc1ccccc1-2` [Example 5d, ((2S,3S)-3,6-Dihydro-6-oxo-(2E-prop-1-enyl-2H-pyran-3-yl))-9H-fluorenecarboxylate], 300 nM; that for `C/C=C/[C@@H]1OC(=O)C=C[C@@H]1OC(=O)c1cccc2c1C(=O)c1ccccc1-2` [Example 5e, ((2S,3S)-3,6-Dihydro-6-oxo-(2E-prop-1-enyl-2H-pyran-3-yl))-9-oxo-9H-fluorene carboxylate], 130 nM.
The result for `C/C=C/[C@@H]1OC(=O)C=C[C@@H]1OC(=O)c1ccc2c(c1)C(=O)c1ccccc1-2` [Example 5f, ((2S,3S)-3,6-Dihydro-6-oxo-(2E-prop-1-enyl-2H-pyran-3-yl))-9-oxo-9H-fluorene-2-carboxylate] reads 1200 nM; that for `C/C=C/[C@@H]1OC(=O)C=C[C@@H]1OC(=O)Cc1ccc(-c2ccccc2)cc1` [Example 5g, ((2S,3S)-3,6-Dihydro-6-oxo-(2E-prop-1-enyl-2H-pyran-3-yl))-4-biphenylacetate], 13400 nM; that for `C/C=C/[C@@H]1OC(=O)C=C[C@@H]1OC(=O)Cc1ccccc1` [Example 5h, ((2S,3S)-3,6-Dihydro-6-oxo-(2E-prop-1-enyl-2H-pyran-3-yl))phenylacetate], 1400 nM.
For the compound `C/C=C/[C@@H]1OC(=O)C=C[C@@H]1OC(=O)/C=C/c1cccc(C)c1` [Example 5i, ((2S,3S)-3,6-Dihydro-6-oxo-(2E-prop-1-enyl-2H-pyran-3-yl))-3m-tolylacrylate], half-maximal inhibition (IC50) was put at 1000 nM.
In the case of `C/C=C/[C@@H]1OC(=O)C=C[C@@H]1OC(=O)/C=C/c1ccc2ccccc2c1` [Example 5j, ((2S,3S)-3,6-Dihydro-6-oxo-(2E-prop-1-enyl-2H-pyran-3-yl))-3-(2-naphthyl)acrylate] it was 700 nM; in that of `C/C=C/[C@@H]1OC(=O)C=C[C@@H]1OC(=O)c1ccc(CCCCC)cc1` [Example 5k, ((2S,3S)-3,6-Dihydro-6-oxo-(2E-prop-1-enyl-2H-pyran-3-yl))-4-pentylbenzoate], 400 nM.
`C/C=C/[C@@H]1OC(=O)C=C[C@@H]1OC(=O)CCCCCCCCCCC` [Example 5l, ((2S,3S)-3,6-Dihydro-6-oxo-(2E-prop-1-enyl-2H-pyran-3-yl))dodecanoate] had a half-inhibitory concentration (IC50) of 8400 nM.
The result for `C/C=C/[C@@H]1OC(=O)C=C[C@@H]1OC(=O)CCCCCCCCCCCCC` [Example 5m, ((2S,3S)-3,6-Dihydro-6-oxo-(2E-prop-1-enyl-2H-20 pyran-3-yl))tetradodecanoate] reads 5400 nM; that for `CCCCCC[C@H](C)/C=C(C)/C=C/C(=O)O[C@H]1C=CC(=O)O[C@H]1/C=C/C(=O)OCC` [Example 6, ((2S,3S)-3,6-Dihydro-6-oxo-(2E-3-oxo-3-ethoxyprop-1-enyl-2H-pyran-3-yl))-(2E,4E)-4,6-dimethyldodecadienoate], 6000 nM; that for `CCCCCC[C@H](C)/C=C(C)/C=C/C(=O)O[C@H]1C=CC(=O)O[C@H]1/C=C/C(=O)OCCC` [Example 6a, ((2S,3S)-3,6-Dihydro-6-oxo-(2E-3-oxo-3-propoxyprop-1-enyl)-2H-pyran-3-yl)-(2E,4E)-4,6-dimethyldodecadienoate], 1400 nM.
The result for `CCCCCC[C@H](C)/C=C(C)/C=C/C(=O)O[C@H]1C=CC(=O)O[C@H]1/C=C/C(=O)OCCCC` [Example 6b, ((2S,3S)-3,6-Dihydro-6-oxo-(2E-3-oxo-3-butoxyprop-1-enyl)-2H-pyran-3-yl)-(2E,4E)-4,6-dimethyldodecadienoate] reads 1400 nM; that for `CCCCCC[C@H](C)/C=C(C)/C=C/C(=O)O[C@H]1C=CC(=O)O[C@H]1/C=C/C(=O)NCc1ccccc1` [Example 6c, ((2S,3S)-3,6-Dihydro-6-oxo-(2E-3-oxo-3-benzylaminoprop-1-enyl)-2H-pyran-3-yl)-(2E,4E)-4,6-dimethyldodecadienoate], > 9000 nM.
